Experimental data taken from article PMC12920294, “Optimizing uPAR-targeting radiopeptides for improved tissue distribution: progress towards radionuclide therapy” (European Journal of Nuclear Medicine and Molecular Imaging, 2025).

Columns and labels:
human uPAR = biological target: T1, human uPAR (Homo sapiens, UniProt Q03405); assay: uPAR-binding affinity, saturation binding on HEK-uPAR cells; details: 4 °C
T1 construct: host or cells: HEK cells transfected with human uPAR (HEK-uPAR)
Protocol: To determine the uPAR-binding affinity of the radiopeptides, saturation binding experiments were performed according to a previously published procedure using HEK-uPAR cells in 48-well plates (Supplementary Material). The assay was performed on ice (at 4 °C) to prevent target internalization upon binding of the radiopeptides. The cells were incubated with the radiopeptides in the presence or absence of excess AE105 (40 µM) together with the respective radiopeptides at concentrations ranging between 1 nM and 1600 nM. After removal of the supernatant, the HEK-uPAR cells were rinsed and lysed to be measured using a γ-counter (Wallac Wizard 1480, PerkinElmer). The KD values were determined by plotting the specific binding (values of cell samples incubated without AE105 minus the respective values of samples incubated with AE105) against the molar concentration of the added peptide. A nonlinear regression analysis was performed using GraphPad Prism software (version 10.1.1). The results are reported as average of KD values ± SD of n = 3 independent experiments. Methods: HEK-uPAR cells were seeded in poly-D-lysine-coated 48-well plates (0.25 × 10^6 in 0.5 mL per well) using DMEM culture medium with supplements. The cells were incubated at 37 °C and 5% CO2 overnight to allow adhesion and growth. The well plates with HEK-uPAR cells were placed on ice for the entire experiment to prevent internalization of the radiopeptides. After removal of the medium, the HEK-uPAR cells were rinsed with cold PBS (0.5 mL, pH 7.4) followed by the addition of DMEM culture medium without supplements (450 µL/well) in the presence or absence of AE105 (final concentration 40 µM) as a receptor blocking agent. The cells were incubated for 30 min on ice. The respective radiopeptides (5 MBq/nmol) were diluted in PBS at peptide concentrations 10‒16000 nM. A volume of 50 µL from each dilution was added to each well to obtain peptide concentrations in the range of […]. The assay was performed at 4 °C on ice, to prevent internalization of the radiopeptides. The radiopeptides were incubated on cells for 1 h on a shaker before rinsing twice with PBS (0.5 mL, pH 7.4). Increasing ligand concentrations were used to approximate saturation of the binding sites (Bmax value) at equilibrium. Ligand depletion effects of the ligand concentration in the supernatant of the cell samples were not taken into account. The cells were lysed using an aqueous NaOH solution (1 M, 600 µL) and the lysates were transferred to radioimmunoassay tubes for counting the activity in a γ-counter (Wallac Wizard 1480, PerkinElmer). The KD values were determined by plotting the specific binding (total binding minus unspecific binding) against the molar concentration of the added radiopeptide using GraphPad Prism software (version 10.1.1). The results were then expressed as average ± SD of n = 3 independent experiments.

[1] = tested on: HEK-uPAR xenograft-bearing mice; details: mouse, in vivo
Protocol: Single-photon emission computed tomography/computed tomography (SPECT/CT) experiments were performed using a small-animal SPECT/CT camera (NanoSPECT/CTTM, Mediso Medical Imaging Systems, Budapest, Hungary) as described previously (Supplementary Material). HEK-uPAR xenografted nude mice were scanned at 1 h, 4 h, 24 h […] after injection of the respective radiopeptide (25 MBq, 0.5 nmol, in 100 μL 0.9% NaCl containing 0.05% bovine serum albumin (BSA)) The images were prepared using VivoQuant post-processing software (version 3.5, inviCRO Imaging Services and Software, Boston, USA). A Gauss post-reconstruction filter (full width at half maximum, 1.0 mm) was applied and the scale of activity was set as indicated on the images (minimum value = 0.2 Bq/voxel, maximum value = 20 Bq/voxel). Methods: SPECT/CT experiments were performed with CD1 nude mice (Crl:CD1-Foxn1^nu) approximately 3-9 weeks after HEK-uPAR cell inoculation. The mice were scanned 1 h, 4 h and 24 h post injection (p.i.) of the respective radiopeptide (25 MBq, 0.5 nmol, 100 μL, diluted in 0.9% NaCl containing 0.05% bovine serum albumin (BSA)). Imaging studies were performed using a four-head, multiplexing, multi-pinhole small-animal SPECT/CT camera (NanoSPECT/CT^TM, Mediso Medical Imaging Systems, Budapest, Hungary). Each head was outfitted with a tungsten-based aperture of nine 1.4 mm-diameter pinholes and a thickness of 10 mm. CT scans of 7-9 min duration were followed by SPECT scans of 45-50 min. The images were acquired using Nucline Software (version 10.2, Mediso Ltd., Budapest, Hungary). The real-time CT reconstruction used a cone-beam filtered backprojection. The reconstruction of SPECT data was performed with HiSPECT software (version 1.4.3049, […] GmbH, Göttingen, Germany) using γ-energies of 56.1 keV (± 10%), 112.9 keV (± 10%) and 208.4 keV (± 10%) for lutetium-177. The images were prepared using VivoQuant post-processing software (version 3.5, inviCRO Imaging Services and Software, Boston, USA). A Gauss post-reconstruction filter (full width at half maximum, 1.0 mm) was applied and the scale of activity was set as indicated on the images (minimum value = 0.2 Bq/voxel, maximum value = 20 Bq/voxel).

T1 sequence (Q03405 23-335): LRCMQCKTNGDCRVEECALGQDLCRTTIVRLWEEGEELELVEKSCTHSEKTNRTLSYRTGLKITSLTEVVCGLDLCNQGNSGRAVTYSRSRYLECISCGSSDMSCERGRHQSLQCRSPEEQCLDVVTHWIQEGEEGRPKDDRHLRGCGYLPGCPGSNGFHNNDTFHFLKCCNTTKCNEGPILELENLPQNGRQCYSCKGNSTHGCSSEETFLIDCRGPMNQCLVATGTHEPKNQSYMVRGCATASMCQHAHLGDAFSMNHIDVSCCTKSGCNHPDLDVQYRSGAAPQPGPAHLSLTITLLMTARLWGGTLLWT

Row | SMILES | Kd (human uPAR) [µM] | SPECT/CT: accumulation in HEK-uPAR xenograft [1] | SPECT/CT: blood retention [1]
1 | Cc1ccc(CCCC(=O)NCCCCCCCC(=O)NCCCC[C@H](NC(=O)CN2CCN(CC(=O)O)CCN(CC(=O)O)CCN(CC(=O)O)CC2)C(=O)N[C@@H](CC(=O)O)C(=O)N[C@@H](CC2CCCCC2)C(=O)N[C@@H](Cc2ccccc2)C(=O)N[C@H](CO)C(=O)N[C@H](CCCNC(=N)N)C(=O)N[C@@H](Cc2ccc(O)cc2)C(=O)N[C@@H](CC(C)C)C(=O)N[C@@H](Cc2c[nH]c3ccccc23)C(=O)N[C@@H](CO)C(N)=O)cc1 [[^177Lu]Lu-uPAR-12, metal not drawn] | 0.038 ± 0.009 | – | substantial blood retention was observed over the entire time of investigation
2 | Cc1ccc(CCCC(=O)NCCOCCOCCOCCOCCOCCC(=O)NCCCC[C@H](NC(=O)CN2CCN(CC(=O)O)CCN(CC(=O)O)CCN(CC(=O)O)CC2)C(=O)N[C@@H](CC(=O)O)C(=O)N[C@@H](CC2CCCCC2)C(=O)N[C@@H](Cc2ccccc2)C(=O)N[C@H](CO)C(=O)N[C@H](CCCNC(=N)N)C(=O)N[C@@H](Cc2ccc(O)cc2)C(=O)N[C@@H](CC(C)C)C(=O)N[C@@H](Cc2c[nH]c3ccccc23)C(=O)N[C@@H](CO)C(N)=O)cc1 [[^177Lu]Lu-uPAR-18, metal not drawn] | 0.033 ± 0.004 | highest at 1 h p.i. and relatively well retained over the following hours | –
3 | Cc1ccc(CCCC(=O)NCCOCCOCCOCCOCCC(=O)NCCCC[C@H](NC(=O)CC[C@H](C(=O)O)N2CCN(CC(=O)O)CCN(CC(=O)O)CCN(CC(=O)O)CC2)C(=O)N[C@@H](CC(=O)O)C(=O)N[C@@H](CC2CCCCC2)C(=O)N[C@@H](Cc2ccccc2)C(=O)N[C@H](CO)C(=O)N[C@H](CCCNC(=N)N)C(=O)N[C@@H](Cc2ccc(O)cc2)C(=O)N[C@@H](CC(C)C)C(=O)N[C@@H](Cc2c[nH]c3ccccc23)C(=O)N[C@@H](CO)C(N)=O)cc1 [[^177Lu]Lu-uPAR-17, metal not drawn] | 0.031 ± 0.006 | almost entirely cleared at 24 h p.i. | –

More lines, main results first:

Row | Kd (human uPAR) [µM] | SMILES | SPECT/CT: accumulation in HEK-uPAR xenograft [1] | SPECT/CT: blood retention [1]
4 | 0.037 ± 0.007 | Cc1ccc(CCCC(=O)NCCOCCOCCOCCOCCC(=O)NC[C@H](NC(=O)CN2CCN(CC(=O)O)CCN(CC(=O)O)CCN(CC(=O)O)CC2)C(=O)N[C@@H](CC(=O)O)C(=O)N[C@@H](CC2CCCCC2)C(=O)N[C@@H](Cc2ccccc2)C(=O)N[C@H](CO)C(=O)N[C@H](CCCNC(=N)N)C(=O)N[C@@H](Cc2ccc(O)cc2)C(=O)N[C@@H](CC(C)C)C(=O)N[C@@H](Cc2c[nH]c3ccccc23)C(=O)N[C@@H](CO)C(N)=O)cc1 [[^177Lu]Lu-uPAR-14, metal not drawn] | almost entirely cleared at 24 h p.i. | –
5 | 0.037 ± 0.011 | Cc1ccc(CCCC(=O)NCCOCCOCCOCCOCCC(=O)NCCCC[C@H](NC(=O)CN2CCN(CC(=O)O)CCN(CC(=O)O)CCN(CC(=O)O)CC2)C(=O)N[C@@H](CC(=O)O)C(=O)N[C@@H](CC2CCCCC2)C(=O)N[C@@H](Cc2ccccc2)C(=O)N[C@H](CO)C(=O)N[C@H](CCCNC(=N)N)C(=O)N[C@@H](Cc2ccc(O)cc2)C(=O)N[C@@H](CC(C)C)C(=O)N[C@@H](Cc2c[nH]c3ccccc23)C(=O)N[C@@H](CO)C(N)=O)cc1 [[^177Lu]Lu-uPAR-11, metal not drawn] | highest at 1 h p.i. and relatively well retained over the following hours | –
6 | 0.042 ± 0.003 | Cc1ccc(CCCC(=O)NCCOCCOCCOCCC(=O)NCCCC[C@H](NC(=O)CN2CCN(CC(=O)O)CCN(CC(=O)O)CCN(CC(=O)O)CC2)C(=O)N[C@@H](CC(=O)O)C(=O)N[C@@H](CC2CCCCC2)C(=O)N[C@@H](Cc2ccccc2)C(=O)N[C@H](CO)C(=O)N[C@H](CCCNC(=N)N)C(=O)N[C@@H](Cc2ccc(O)cc2)C(=O)N[C@@H](CC(C)C)C(=O)N[C@@H](Cc2c[nH]c3ccccc23)C(=O)N[C@@H](CO)C(N)=O)cc1 [[^177Lu]Lu-uPAR-15, metal not drawn] | highest at 1 h p.i. and relatively well retained over the following hours | –
